Experiment: Human HepG2 cell viability assay in 384 well format
Assay type: toxicity, cell-based
Set-up: dose 125 nL, time 70.5 hour; concentration not given beside the values
Conditions: HepG2 cells, read-out: Inhibition

Row | Compound | cytotoxicity at 70.5 h [%]
1 | Cc1cnn(CC2CCCN2Cc2noc(-c3ccccc3)n2)c1 (configuration not stated) | -9.63
2 | Cc1cnn(CC2CN(CCc3ccccn3)CCO2)c1 (configuration not stated) | -7.7
3 | CCc1nc(CN2CCCC2c2c(C)nn(C)c2OC)no1 (configuration not stated) | -3.81
4 | NC(=O)C1CCCN(c2ccc(CNC(=O)c3cc[nH]n3)cc2)C1 (configuration not stated) | 5.04
5 | Cc1cnn(CC2CN(CC(=O)Nc3ccncc3)CCO2)c1 (configuration not stated) | -5.95
6 | CC(=O)NCCNC(=O)CN1CCOC(Cn2cc(C)cn2)C1 (configuration not stated) | -5.91
7 | O=C(c1ccc2c(c1)OCCO2)N1CCCC(n2ccnc2)C1 (configuration not stated) | -4.86
8 | Cc1ccc(-c2nc(CN3CCCCC3Cn3cncn3)no2)cc1 (configuration not stated) | -7.36
9 | Cc1nn(C)c(C)c1C1CCCN1C(=O)c1ccc(N(C)C)nn1 (configuration not stated) | -6.36
10 | Cc1nc(C(=O)N2CCCC2c2c(C)nn(C)c2Cl)ccc1C#N (configuration not stated) | -4.22
11 | Cc1nn(C)c(C)c1C1CCCN1C(=O)c1cnccn1 (configuration not stated) | -2.94
12 | Cc1cc(C)n(CC2CCCN2Cc2nc(N)c3ccccc3n2)n1 (configuration not stated) | -3.06
13 | Cc1cnn(CC2CCCN2Cc2noc(C3CC3)n2)c1 (configuration not stated) | 0.359
14 | COc1c(C2CCCN2Cc2nc(C)c(C)o2)c(C)nn1C (configuration not stated) | -7.8
15 | Cc1cnn(CCNCc2ccccc2OCc2ccncc2)c1 | 3.09
16 | Cc1nc(C)n(CC2CCCN2Cc2nc3ccccc3c(=O)[nH]2)n1 (configuration not stated) | -1.61
17 | Cc1nc(C(=O)N2CCCC2c2c(C)nn(C)c2C)cs1 (configuration not stated) | -3.9
18 | Cc1nn(C)c(N(C)C)c1CNCc1ccccc1Cn1ccnc1 | -1.82
19 | Cc1cnn(CCNCc2ccccc2OCc2ccccn2)c1 | -0.163
20 | Cc1nc(C)n(CC2CCCN2Cc2nc3ccccc3s2)n1 (configuration not stated) | -5.56
21 | Cc1ccccc1OCCN1CCn2c(C)nnc2C1 | 25.1
22 | Cc1cc(C)cc(OCCN2CCn3c(C)nnc3C2)c1 | -4.98
23 | CCn1ncc2c1CCCC2NCc1cccc2c1OCO2 (configuration not stated) | 15.8
24 | Cc1ncccc1CNCC1CCN(CC(C)O)CC1 (configuration not stated) | -4.39

Row | Compound | cytotoxicity at 70.5 h [%]
25 | CC(C)Oc1ncccc1CNC(=O)Nc1ccccn1 | 0.773
26 | CC(NCc1ccccc1Cl)c1ccc(OCC(=O)NC2CC2)cc1 (configuration not stated) | 0.704
27 | Cc1cccc(CNC(C)c2ccc(OCC(=O)NC3CC3)cc2)c1 (configuration not stated) | -0.442
28 | CCN(Cc1nc2c(cnn2C)c(=O)[nH]1)c1ccccc1 | 3.68
29 | Cn1ncc2c1CCCC2NCc1cccc2c1OCCCO2 (configuration not stated) | 0.963
30 | Cc1cc(C)n(CC2CN(c3ncnc4[nH]ccc34)CCO2)n1 (configuration not stated) | 1.04
31 | CC(Cn1cccn1)NCc1ccc(OCc2ccncc2)cc1 (configuration not stated) | 3.19
32 | Cc1cnn(CC(C)NCc2ccc(OCC(N)=O)cc2)c1 (configuration not stated) | 11.6
33 | Cc1ccc(CNCC2CCN(CC(O)c3ccccc3)CC2)o1 (configuration not stated) | -1.65
34 | Cc1cnn(CC2CN(c3ncnc4[nH]ccc34)CCO2)c1 (configuration not stated) | 1.56
35 | O=C(Nc1ccccc1)N1CCN(Cc2noc(C3CC3)n2)CC1 | -7.64
36 | Cc1ccccc1NC(=O)N1CCN(Cc2noc(C3CC3)n2)CC1 | 1.73
37 | CCn1ncc2c1CCCC2NCc1ccc2c(c1)CCO2 (configuration not stated) | -0.486
38 | COc1ccc(COCC(O)CNC(=O)c2cccc(OC)c2)cc1 (configuration not stated) | -0.933
39 | CCc1n[nH]c(C2CN(CCCS(C)(=O)=O)CCO2)n1 (configuration not stated) | 32.1
40 | CC(C)n1ccnc1CN1CCCN(C(=O)CC2CCCO2)CC1 (configuration not stated) | 23.9
41 | FC(F)(F)COCCN1CCOC(Cn2cccn2)C1 (configuration not stated) | -0.0607
42 | COCCC(=O)N1CCCN(Cc2nccn2C(C)C)CC1 | -1.06
43 | CC(C)(C)c1nc(CN(Cc2cccs2)CC2CCCO2)no1 (configuration not stated) | 3.58
44 | CCc1n[nH]c(C2CN(CCS(C)(=O)=O)CCO2)n1 (configuration not stated) | -0.712
45 | Cn1ccnc1CN1CCCN(C(=O)COC2CCCC2)CC1 | -2.98
46 | CCc1nc(CN2CCCN(c3nn4cc(C)nc4s3)CC2)no1 | 23.9
47 | O=C(Cc1csc(-c2ccco2)n1)N1CCSCC1 | -11.7
48 | Cc1ccc(C(=O)NC2CCN(Cc3cccc4c3OCCO4)CC2)s1 | -2.59

Row | Compound | cytotoxicity at 70.5 h [%]
49 | Cc1cccc(C2(C(=O)NCC3CCN(CC(F)(F)F)C3)CCC2)c1 (configuration not stated) | -1.39
50 | CNC(=O)C1CCN(C(=O)NCCc2ccc(Cl)s2)CC1 | -5.01
51 | c1ccc(-n2ccc(CN3CCCC(Cn4cncn4)C3)n2)cc1 (configuration not stated) | 0.226
52 | COc1cccc(C(=O)N2CCC(Nc3ccc(C)nn3)CC2)c1 | 1.25
53 | Cc1ccc(F)c(C(=O)N2CCC(Nc3ccc(C)nn3)CC2)c1 | -2.35
54 | CCn1c(C)cc(C(=O)N2CCc3nnc(N)cc3C2)c1C | -0.105
55 | O=C(O)c1cc(S(=O)(=O)Nc2ccc(F)cc2Cl)cc2c1OCCO2 | 0.949
56 | O=C(O)c1cc(S(=O)(=O)Nc2ccc(F)c(Cl)c2)cc2c1OCCO2 | 3.36
57 | COc1c(CNC(c2ccc(F)cc2)c2nccn2C)c(C)nn1C (configuration not stated) | 45.1
58 | CN(C)C(=O)CN1CCN(C(=O)Cc2csc(-c3ncccn3)n2)CC1 | -4.31
59 | CC(C(=O)N1CCCN(c2ccc(C#N)cc2)CC1)n1ccnc1 (configuration not stated) | -1.24
60 | CCN(Cc1ccc2c(c1)OCO2)C(=O)c1ccc(C)[nH]c1=O | 35.4
61 | NC(=O)CC1CCN(C(=O)CCOc2ccc(Cl)cc2)CC1 | -1.2
62 | COc1c(CNCc2ccc(N(C)C)nc2)c(C(C)C)nn1C | 1.68
63 | Cc1nc2ccccc2c(=O)n1CCC(=O)N1CCSCC1 | -4.52
64 | COCC(=O)NC(C)Cc1cccc(Br)c1 (configuration not stated) | 33.7
65 | Cc1nn(C)c(N(C)C)c1CNC1CCOc2c(F)cccc21 (configuration not stated) | 13.3
66 | COC1CCN(C(=O)Cc2csc(-c3ncccn3)n2)CC1 | -3.38
67 | Cc1cccc(C(=O)NC(CN2CCCC2=O)c2ccccc2)n1 (configuration not stated) | 0.515
68 | CCn1c(CN2CCN(CC(N)=O)CC2)nc2c(F)cccc21 | -0.996
69 | CCNc1cc2c(nn1)CCN(C(=O)c1ccc3cc[nH]c3c1)C2 | 2.8
70 | COc1c(CNC(c2nccn2C)C(C)C)c(C)nn1C (configuration not stated) | -6.48
71 | CS(=O)(=O)N1CCCCCC1C1CCN(c2ncccc2C#N)CC1 (configuration not stated) | -0.285
72 | Cn1cc(CNC2CCCN(Cc3noc(C4CC4)n3)C2)cn1 (configuration not stated) | 3.36

Row | Compound | cytotoxicity at 70.5 h [%]
73 | CC(O)CN1CCN(C(=O)c2ccc(Br)o2)CC1 (configuration not stated) | -19.8
74 | COc1cccc(COCC(O)CN2CC(n3cccn3)C2)c1 (configuration not stated) | -6.05
75 | N#CC1(C(=O)N2CCN(c3nccs3)CC2)CCCCC1 | -10.1
76 | CCOc1ccccc1OC1CCN(C(=O)c2ccc(=O)[nH]n2)CC1 | -7.24
77 | N#Cc1ccnc(N2CCN(C(=O)Cc3ccc4c(c3)CCO4)CC2)c1 | -7.76
78 | Cc1nn(C)c(N2CCOCC2)c1CNCc1nccs1 | -6.17
79 | CC(C)Oc1ncccc1CNC(=O)N1CCC(C(N)=O)C1 (configuration not stated) | -12.5
80 | O=C(c1ccc(-n2ccnc2)nc1)N1CCCC(n2cccn2)C1 (configuration not stated) | 1.69
81 | Cc1nnc2n1CCN(Cc1ncc(-c3ccc(Cl)cc3)o1)C2 | -11
82 | c1cnn(C2CN(Cc3nc(-c4ccsc4)no3)C2)c1 | -11.9
83 | COc1ccc(-c2cnc(CN3CCn4c(C)nnc4C3)o2)cc1 | 22.7
84 | Cc1cc(C)c(CNC(=O)NCCOc2ccc3c(c2)CCC3)c(=O)[nH]1 | -9.44
85 | CC(C(=O)NCc1ccnc(N2CCN(C)CC2)c1)n1cccn1 (configuration not stated) | -5.91
86 | Cc1cc(C2CCCN2C(=O)c2cc3c(s2)CCC3)on1 (configuration not stated) | -16.3
87 | c1cnc(-c2nc(CNCCn3cccn3)cs2)nc1 | 8.63
88 | c1ccc(-c2noc(CN3CCOC(Cn4cccn4)C3)n2)nc1 (configuration not stated) | -8.08
89 | CCc1nc(CN2CCCC(NCc3nc4cccnc4[nH]3)C2)no1 (configuration not stated) | 18.9
90 | CNS(=O)(=O)Cc1ccc(CNC(=O)Nc2cccnc2)cc1 | 13.3
91 | O=C(Nc1ccccn1)C1=NN(c2ccccc2)C(=O)CN1 | 45.9
92 | CC(=O)N1CCN(C(=O)CCCc2nc(C(C)C)no2)CC1 | 11.7
93 | CC(C(=O)NCCOc1cccc(Cl)c1)n1cncn1 (configuration not stated) | -9.41
94 | CC(Cn1ccnc1)NC(=O)C1(c2ccc3c(c2)OCCO3)CCCC1 (configuration not stated) | 14.5
95 | CC(Cn1cccn1)NC(=O)NCCc1cnn(C)c1 (configuration not stated) | -16.3
96 | CNS(=O)(=O)Cc1ccc(CNC(=O)Nc2cn[nH]c2)cc1 | -11.3

Row | Compound | cytotoxicity at 70.5 h [%]
97 | Cc1ccc(S(=O)(=O)Nc2ccc(=O)n(C)c2)cc1 | -13.1
98 | COc1cccc(C2CCCN2Cc2nc3c(cnn3C)c(=O)[nH]2)c1 (configuration not stated) | -1.55
99 | Cc1ccc(C2CCCN2Cc2nc3c(cnn3C)c(=O)[nH]2)cc1C (configuration not stated) | -15.6
100 | CC(Cn1ccnc1)NC(=O)C1(c2ccc(F)cc2)CC1 (configuration not stated) | -8.11
101 | COc1ccc2c(c1)CN(Cc1nc3c(cnn3C)c(=O)[nH]1)CC2 | 45.5
102 | O=C(CN1CCC(N2CCNC2=O)CC1)NCC(F)(F)F | -11.3
103 | COC(=O)c1ccc(N2CCN(C(=O)c3cc(C)on3)C(C)C2)cc1 (configuration not stated) | -15.3
104 | COC(=O)c1ccc(N2CCN(C(=O)c3cnn(C)c3)C(C)C2)cc1 (configuration not stated) | 16.7
105 | CC(C)c1ccc(C(C)NC(=O)N2CCC(n3cncn3)CC2)cc1 (configuration not stated) | -13.4
106 | Cc1cnn(CCNCC(O)COc2c(C)ccc(C)c2C)c1 (configuration not stated) | -5.42
107 | CNc1cc2c(nn1)CCN(C(=O)C1CCCc3ccccc31)C2 (configuration not stated) | -19
108 | Cn1cc(C2CCCN2C(=O)CCCOc2ccc(F)cc2F)cn1 (configuration not stated) | -11.3
109 | CN(CC(=O)N1CCCC1Cn1cccn1)C1CC1 (configuration not stated) | -14.3
110 | CN1CCN(C2CCN(CC(=O)NCC(F)(F)F)CC2)C1=O | -6.61
111 | Cc1cc(C(C)NC(=O)N2CCC(n3cncn3)CC2)c(C)s1 (configuration not stated) | -17.7
112 | CC(Cn1cccn1)NC(=O)N(C)Cc1ccc(Cl)s1 (configuration not stated) | -16.6
113 | CCCc1noc(CN2CCCC2c2ccsc2)n1 (configuration not stated) | -17.8
114 | CN(CC(=O)N1CCCC1Cn1cccn1)c1cnccn1 (configuration not stated) | -19.4
115 | Clc1snnc1CN1CCCCC1Cn1cncn1 (configuration not stated) | 11.8
116 | c1cnn(CCN2CCOC(Cn3cncn3)C2)c1 (configuration not stated) | 6.43
117 | COc1c(C)cnc(CN2CCCCC2Cn2nc(C)nc2C)c1C (configuration not stated) | 16.8
